Source: ChEMBL document CHEMBL1201862, “PubChem BioAssay data set” (2004)
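How tested: cells in 96-well plates exposed to compound for 48 hours at five concentrations. GI50 is the concentration that inhibits growth by half.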 Active and inactive are the calls of the source. Rule as the data show it: active = GI50 up to about 1.1 µM and inactive = higher.

Experiments:
Assay in all cases: NCI anticancer screen, dose series, 48 h
EKVX = tested on: EKVX
CAKI-1 = tested on: CAKI-1
RXF 393 = tested on: RXF 393
SN12C = tested on: SN12C
OVCAR-5 = tested on: OVCAR-5
HT-29 = tested on: HT-29
SNB-19 = tested on: SNB-19
Malme-3M = tested on: Malme-3M
SW-620 = tested on: SW-620
MDA-MB-435 = tested on: MDA-MB-435
OVCAR-4 = tested on: OVCAR-4
UACC-257 = tested on: UACC-257
UO-31 = tested on: UO-31
HL-60 = tested on: HL-60
Hs-578T = tested on: Hs-578T
COLO 205 = tested on: COLO 205
A498 = tested on: A498
HOP-92 = tested on: HOP-92

Measured: GI50

NNC(=O)c1ccccc1Nc1ccccc1C(=O)NN
inactive: EKVX > 100 µM | CAKI-1 > 100 µM | RXF 393 > 100 µM | SN12C > 100 µM | OVCAR-5 > 100 µM | HT-29 > 100 µM | SNB-19 > 100 µM | Malme-3M > 100 µM | SW-620 > 100 µM | MDA-MB-435 > 100 µM | OVCAR-4 > 100 µM | UACC-257 > 100 µM | UO-31 > 100 µM | HL-60 > 100 µM | Hs-578T 92.9 µM | COLO 205 > 100 µM

Cc1cc(C)c(N[S+]([O-])c2cccc(Cl)c2)c(C)c1 (stereo not given)
inactive: EKVX > 100 µM | A498 29.2 µM | RXF 393 > 100 µM | SN12C > 100 µM | OVCAR-5 > 100 µM | HOP-92 > 100 µM | HT-29 > 100 µM | SNB-19 > 100 µM | Malme-3M > 100 µM | SW-620 > 100 µM | MDA-MB-435 > 100 µM | UACC-257 > 100 µM | UO-31 > 100 µM | HL-60 > 100 µM | COLO 205 > 100 µM

O=S(=O)(c1ccccc1)N1CN2CN(C1)CN(S(=O)(=O)c1ccccc1)C2
inactive: EKVX > 100 µM | A498 > 100 µM | CAKI-1 > 100 µM | RXF 393 55.7 µM | SN12C > 100 µM | OVCAR-5 > 100 µM | HOP-92 > 100 µM | HT-29 > 100 µM | SNB-19 > 100 µM | SW-620 > 100 µM | MDA-MB-435 > 100 µM | OVCAR-4 > 100 µM | UACC-257 > 100 µM | UO-31 > 100 µM | HL-60 26.6 µM | COLO 205 > 100 µM

CCN(CC)c1ccc(C2Nc3ccc4ccccc4c3C3=C2C(=O)CCC3)cc1 (stereo not given)
inactive: EKVX > 100 µM | A498 45.4 µM | CAKI-1 33.7 µM | RXF 393 17.3 µM | SN12C 42 µM | OVCAR-5 > 100 µM | HT-29 55.7 µM | SNB-19 37.3 µM | Malme-3M > 100 µM | SW-620 > 100 µM | MDA-MB-435 54.6 µM | OVCAR-4 14.9 µM | UACC-257 > 100 µM | UO-31 26.1 µM | Hs-578T 11.2 µM | COLO 205 > 100 µM

CC1=CC(=O)/C(=C/NC(=S)NCCc2ccccc2)C(=O)O1
inactive: EKVX > 100 µM | CAKI-1 > 100 µM | SN12C > 100 µM | OVCAR-5 > 100 µM | HOP-92 > 100 µM | HT-29 > 100 µM | SNB-19 > 100 µM | SW-620 > 100 µM | MDA-MB-435 > 100 µM | OVCAR-4 > 100 µM | UACC-257 > 100 µM | UO-31 > 100 µM | HL-60 > 100 µM | COLO 205 > 100 µM

Nc1ncc(Cc2nc3ccccc3s2)s1
inactive: EKVX 30 µM | CAKI-1 53.3 µM | RXF 393 > 100 µM | SN12C > 100 µM | OVCAR-5 > 100 µM | HOP-92 68.4 µM | HT-29 29.3 µM | SNB-19 > 100 µM | Malme-3M 68.9 µM | SW-620 > 100 µM | MDA-MB-435 39.2 µM | OVCAR-4 > 100 µM | UACC-257 76.7 µM | UO-31 68.9 µM | HL-60 > 100 µM | Hs-578T 15.1 µM | COLO 205 34.4 µM

O=C(/C=C/c1c(O)nc2ccccc2c1O)CC(=O)C(=O)Nc1cccc(O)c1
inactive: EKVX > 100 µM | A498 > 100 µM | CAKI-1 > 100 µM | SN12C > 100 µM | OVCAR-5 > 100 µM | HOP-92 > 100 µM | HT-29 > 100 µM | SNB-19 > 100 µM | Malme-3M > 100 µM | SW-620 > 100 µM | MDA-MB-435 > 100 µM | OVCAR-4 > 100 µM | UACC-257 > 100 µM | UO-31 > 100 µM | HL-60 > 100 µM | Hs-578T > 100 µM | COLO 205 > 100 µM

CC(=O)c1c(O)c(C)c(O)c(Cc2c(O)c3c(c(C(=O)/C=C/c4ccccc4)c2O)OC(C)(C)C=C3)c1O [ROTTLERIN]
inactive: EKVX 2.68 µM | A498 1.95 µM | CAKI-1 2.91 µM | SN12C 2.21 µM | OVCAR-5 3.56 µM | HOP-92 1.62 µM | HT-29 3.24 µM | SNB-19 2.34 µM | Malme-3M 2.84 µM | SW-620 3.19 µM | MDA-MB-435 2.74 µM | OVCAR-4 2.79 µM | UACC-257 2.21 µM | UO-31 2.26 µM | HL-60 2.64 µM | Hs-578T 3.65 µM | COLO 205 1.68 µM

Nn1c(Cc2ccccc2)n[nH]c1=O
inactive: EKVX > 100 µM | A498 > 100 µM | CAKI-1 > 100 µM | SN12C > 100 µM | OVCAR-5 > 100 µM | HT-29 > 100 µM | SNB-19 > 100 µM | Malme-3M 37.2 µM | SW-620 > 100 µM | MDA-MB-435 > 100 µM | OVCAR-4 > 100 µM | UACC-257 > 100 µM | UO-31 > 100 µM | HL-60 > 100 µM | Hs-578T > 100 µM | COLO 205 > 100 µM

Cl.O=C(O)c1cccnc1
inactive: EKVX > 100 µM | CAKI-1 > 100 µM | SN12C > 100 µM | OVCAR-5 64.4 µM | HOP-92 > 100 µM | HT-29 > 100 µM | SNB-19 > 100 µM | Malme-3M > 100 µM | SW-620 > 100 µM | MDA-MB-435 > 100 µM | OVCAR-4 > 100 µM | UACC-257 > 100 µM | UO-31 > 100 µM | HL-60 > 100 µM | Hs-578T > 100 µM | COLO 205 > 100 µM

CC(C)(C)c1cc(C(C)(C)C)c(SS(=O)(=O)O)c(O)c1O
inactive: EKVX 62.1 µM | A498 54.7 µM | CAKI-1 52.2 µM | RXF 393 28.2 µM | SN12C 67 µM | OVCAR-5 > 100 µM | HOP-92 84.1 µM | HT-29 41.1 µM | SNB-19 46.8 µM | Malme-3M 97.5 µM | SW-620 51.4 µM | MDA-MB-435 23.9 µM | OVCAR-4 28.9 µM | UACC-257 79.1 µM | UO-31 > 100 µM | HL-60 65.6 µM | COLO 205 46.5 µM

CC/C(=C/OC)P1(=O)OC(C)(C)CN1C(C)(C)C (stereo not given)
inactive: EKVX > 100 µM | A498 > 100 µM | CAKI-1 > 100 µM | OVCAR-5 > 100 µM | HT-29 > 100 µM | SNB-19 > 100 µM | Malme-3M > 100 µM | SW-620 > 100 µM | MDA-MB-435 > 100 µM | OVCAR-4 > 100 µM | UACC-257 > 100 µM | UO-31 > 100 µM | COLO 205 > 100 µM

C[C@H](CCC(=O)O)[C@H]1CC[C@H]2[C@@H]3[C@H](O)C[C@@H]4C[C@H](O)CC[C@]4(C)[C@H]3CC[C@]12C [CHENODIOL]
inactive: EKVX 33.8 µM | A498 69.5 µM | CAKI-1 37.2 µM | RXF 393 44.7 µM | SN12C 43.2 µM | OVCAR-5 52.6 µM | HOP-92 30.3 µM | HT-29 24.3 µM | SNB-19 43.8 µM | Malme-3M 32.2 µM | SW-620 41.7 µM | MDA-MB-435 37 µM | OVCAR-4 51.9 µM | UACC-257 41.8 µM | UO-31 21.4 µM | HL-60 34 µM | COLO 205 22.8 µM

CCN(CC)CC1CN=C(N)O1 (stereo not given)
inactive: EKVX > 100 µM | A498 > 100 µM | CAKI-1 > 100 µM | RXF 393 > 100 µM | SN12C > 100 µM | OVCAR-5 > 100 µM | HOP-92 > 100 µM | SNB-19 > 100 µM | SW-620 > 100 µM | MDA-MB-435 > 100 µM | OVCAR-4 > 100 µM | UACC-257 > 100 µM | UO-31 > 100 µM | COLO 205 > 100 µM

Cc1cc(C)nc(NC(=S)Nc2ccccc2Cl)c1
inactive: EKVX > 100 µM | A498 > 100 µM | CAKI-1 > 100 µM | RXF 393 > 100 µM | SN12C > 100 µM | OVCAR-5 > 100 µM | HT-29 > 100 µM | SNB-19 > 100 µM | Malme-3M > 100 µM | SW-620 > 100 µM | MDA-MB-435 > 100 µM | OVCAR-4 > 100 µM | UACC-257 > 100 µM | UO-31 > 100 µM | HL-60 > 100 µM | Hs-578T > 100 µM | COLO 205 > 100 µM

C[N+](C)(C)CC(=O)N/N=C(\Cc1nc2ccc([N+](=O)[O-])cc2nc1O)C(=O)Nc1nc2ccc([N+](=O)[O-])cc2s1
inactive: EKVX 25 µM | A498 51.5 µM | CAKI-1 24.6 µM | RXF 393 41.3 µM | SN12C 89.1 µM | OVCAR-5 > 100 µM | HOP-92 29 µM | HT-29 45.6 µM | SW-620 78 µM | MDA-MB-435 85.1 µM | OVCAR-4 30 µM | UACC-257 > 100 µM | UO-31 25.7 µM | HL-60 > 100 µM | COLO 205 48.8 µM

CC(=O)NC1(C)CCC(C(C)(C)NC(C)=O)CC1 (stereo not given)
inactive: EKVX > 100 µM | A498 > 100 µM | CAKI-1 > 100 µM | RXF 393 > 100 µM | SN12C > 100 µM | OVCAR-5 > 100 µM | HT-29 > 100 µM | SNB-19 > 100 µM | Malme-3M > 100 µM | SW-620 > 100 µM | MDA-MB-435 > 100 µM | OVCAR-4 > 100 µM | UACC-257 > 100 µM | UO-31 > 100 µM | HL-60 > 100 µM | Hs-578T > 100 µM | COLO 205 > 100 µM
